Consider 16 molecules from patent US11339130B1 (Blade Therapeutics, Inc., priority 2016, dated 2022).

SMILES strings stand for the structures. Read-outs that look alike come from different tables or passages of the source. Some results are limits rather than exact numbers.

Type in all cases: biochemical
The target in one assay is T1, Human Calpain 2/NS1 (Homo sapiens, UniProt P17655).
T1 sequence (P17655 1-700): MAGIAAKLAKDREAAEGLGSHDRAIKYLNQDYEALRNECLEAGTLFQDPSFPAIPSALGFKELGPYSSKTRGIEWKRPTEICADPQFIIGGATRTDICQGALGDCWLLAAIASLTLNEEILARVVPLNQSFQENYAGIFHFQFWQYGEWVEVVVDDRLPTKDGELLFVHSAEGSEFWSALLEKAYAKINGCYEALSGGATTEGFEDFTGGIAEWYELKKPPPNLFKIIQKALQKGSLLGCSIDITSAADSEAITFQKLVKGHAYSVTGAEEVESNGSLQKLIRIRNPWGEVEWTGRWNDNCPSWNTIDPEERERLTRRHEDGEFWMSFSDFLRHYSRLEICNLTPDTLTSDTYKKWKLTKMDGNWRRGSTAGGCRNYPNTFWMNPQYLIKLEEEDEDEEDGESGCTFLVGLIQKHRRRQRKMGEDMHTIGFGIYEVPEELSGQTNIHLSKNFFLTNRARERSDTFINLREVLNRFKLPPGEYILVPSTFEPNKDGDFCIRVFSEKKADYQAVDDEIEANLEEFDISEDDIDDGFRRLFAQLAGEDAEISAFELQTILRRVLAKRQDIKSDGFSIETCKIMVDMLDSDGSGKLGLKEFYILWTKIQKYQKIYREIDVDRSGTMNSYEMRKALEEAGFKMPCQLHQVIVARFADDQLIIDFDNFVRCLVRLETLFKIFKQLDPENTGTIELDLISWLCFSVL
T1 sequence (P04632 1-268 partner): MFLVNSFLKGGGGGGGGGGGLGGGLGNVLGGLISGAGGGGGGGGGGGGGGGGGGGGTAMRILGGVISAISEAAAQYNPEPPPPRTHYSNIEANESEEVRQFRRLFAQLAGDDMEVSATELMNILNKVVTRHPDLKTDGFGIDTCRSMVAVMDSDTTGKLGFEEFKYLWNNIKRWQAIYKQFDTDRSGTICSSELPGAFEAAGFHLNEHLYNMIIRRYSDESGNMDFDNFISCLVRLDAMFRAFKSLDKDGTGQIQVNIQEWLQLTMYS
Briefly: Calpain inhibition continuous fluorescence (FRET) assay, Human Calpain 2/NS1. As to conditions: read-out: Human Calpain 2/NS1 IC50. In short, it runs like this:
(§1)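 Buffer 50 mM Tris pH 7.5/100 mM NaCl/1 mM DTT; enzyme + cpd preinc 25C; start w/ FRET substrate + CaCl2; kinetic 490/520 nm, 10 min; slopes 1-5 min; 4-PL IC50.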

A further assay deals with T2, Human Calpain 1/NS1 (Homo sapiens, UniProt P07384).
T2 sequence (P07384 1-714): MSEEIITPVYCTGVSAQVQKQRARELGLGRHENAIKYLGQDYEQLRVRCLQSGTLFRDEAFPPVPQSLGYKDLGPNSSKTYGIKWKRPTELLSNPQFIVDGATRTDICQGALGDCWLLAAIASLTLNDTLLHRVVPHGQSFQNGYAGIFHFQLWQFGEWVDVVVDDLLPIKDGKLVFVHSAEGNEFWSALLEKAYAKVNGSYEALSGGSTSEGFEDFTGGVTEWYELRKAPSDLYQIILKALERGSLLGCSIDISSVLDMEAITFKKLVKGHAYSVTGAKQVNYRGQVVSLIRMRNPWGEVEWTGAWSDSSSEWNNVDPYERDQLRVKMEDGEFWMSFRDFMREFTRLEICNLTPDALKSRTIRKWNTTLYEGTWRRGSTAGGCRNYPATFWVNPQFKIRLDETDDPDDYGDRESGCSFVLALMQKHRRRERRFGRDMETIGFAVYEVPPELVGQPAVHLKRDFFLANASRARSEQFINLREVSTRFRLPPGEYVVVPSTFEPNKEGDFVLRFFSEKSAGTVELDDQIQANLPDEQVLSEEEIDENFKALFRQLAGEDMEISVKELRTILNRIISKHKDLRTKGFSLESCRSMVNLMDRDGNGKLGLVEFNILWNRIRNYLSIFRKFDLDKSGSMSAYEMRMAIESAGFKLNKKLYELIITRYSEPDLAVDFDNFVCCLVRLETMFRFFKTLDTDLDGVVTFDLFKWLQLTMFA
T2 sequence (P04632 1-268 partner): T1 sequence (P04632 1-268 partner)
Briefly: Calpain inhibition continuous fluorescence (FRET) assay, Human Calpain 1/NS1. To be noted: read-out: Human Calpain 1/NS1 IC50. The gist of the method:
as §1

In a further assay the target is T3, Human Calpain 9/NS1 (Homo sapiens, UniProt O14815).
T3 sequence (O14815 1-690): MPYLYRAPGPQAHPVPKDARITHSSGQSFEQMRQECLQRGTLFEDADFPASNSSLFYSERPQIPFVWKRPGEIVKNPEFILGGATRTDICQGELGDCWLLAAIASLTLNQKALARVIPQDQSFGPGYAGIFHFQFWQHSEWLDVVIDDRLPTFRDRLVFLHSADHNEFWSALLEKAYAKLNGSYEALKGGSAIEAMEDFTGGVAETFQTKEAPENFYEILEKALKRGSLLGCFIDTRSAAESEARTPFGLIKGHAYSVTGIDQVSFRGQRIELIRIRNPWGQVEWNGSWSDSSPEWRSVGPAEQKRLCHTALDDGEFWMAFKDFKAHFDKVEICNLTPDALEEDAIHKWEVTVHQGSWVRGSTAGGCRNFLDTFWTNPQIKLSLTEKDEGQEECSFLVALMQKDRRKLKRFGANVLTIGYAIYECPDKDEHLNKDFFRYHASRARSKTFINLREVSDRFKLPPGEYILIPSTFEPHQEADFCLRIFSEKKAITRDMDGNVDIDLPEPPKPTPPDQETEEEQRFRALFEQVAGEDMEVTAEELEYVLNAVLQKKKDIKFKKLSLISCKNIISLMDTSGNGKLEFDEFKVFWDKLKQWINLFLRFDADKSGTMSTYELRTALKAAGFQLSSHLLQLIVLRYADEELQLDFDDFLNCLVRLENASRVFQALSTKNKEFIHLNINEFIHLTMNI
T3 sequence (P04632 1-268 partner): T1 sequence (P04632 1-268 partner)
The assay is described as follows: Calpain inhibition continuous fluorescence (FRET) assay, Human Calpain 9/NS1. To be noted: read-out: Human Calpain 9/NS1 IC50. The gist of the method: as §1

Turning to `Cn1nnc(C(=O)N[C@@H](Cc2ccccc2)C(=O)C(N)=O)c1-c1ccccc1` [Compound 260, (S)—N-(4-amino-3,4-dioxo-1-phenylbutan-2-yl)-1-methyl-5-phenyl-1H-1,2,3-triazole-4-carboxamide], the IC50 at Human Calpain 2/NS1 (Column B), at Human Calpain 1/NS1 (Column A) and at Human Calpain 9/NS1 (Column C) was less than 3 µM throughout.

For the molecule `Cn1cc(C(=O)N[C@@H](Cc2ccccc2)C(=O)C(N)=O)c(-c2ccccn2)n1` [Compound 169, (S)—N-(4-amino-3,4-dioxo-1-phenylbutan-2-yl)-1-methyl-3-(pyridin-2-yl)-1H-pyrazole-4-carboxamide], the IC50 on Human Calpain 2/NS1 (Column B), at Human Calpain 1/NS1 (Column A) and on Human Calpain 9/NS1 (Column C) was less than 3 µM each time.

For the molecule `Cc1cc(C(=O)N[C@@H](Cc2ccccc2)C(=O)C(N)=O)n(-c2nc3c(C)cccc3s2)n1` [Compound 298, (S)—N-(4-amino-3,4-dioxo-1-phenylbutan-2-yl)-3-methyl-1-(4-methylbenzo[d]thiazol-2-yl)-1H-pyrazole-5-carboxamide], the IC50 on Human Calpain 2/NS1 (Column B), at Human Calpain 1/NS1 (Column A) and on Human Calpain 9/NS1 (Column C) was more than 10 µM in each case.

Consider `Cc1cc(C(=O)N[C@@H](Cc2ccccc2)C(=O)C(N)=O)nn1-c1nccs1` [Compound 219, (S)—N-(4-amino-3,4-dioxo-1-phenylbutan-2-yl)-5-methyl-1-(thiazol-2-yl)-1H-pyrazole-3-carboxamide], for which the IC50 on Human Calpain 2/NS1 (Column B), at Human Calpain 1/NS1 (Column A) and at Human Calpain 9/NS1 (Column C) was 3 to 10 µM in each case.

On to `NC(=O)C(=O)[C@H](Cc1ccccc1)NC(=O)c1[nH]ncc1-c1ccccc1` [Compound 129, (S)—N-(4-amino-3,4-dioxo-1-phenylbutan-2-yl)-4-phenyl-1H-pyrazole-5-carboxamide], for which the IC50 on Human Calpain 2/NS1 (Column B) was more than 10 µM; on Human Calpain 1/NS1 (Column A), 3 to 10 µM; at Human Calpain 9/NS1 (Column C), 3 to 10 µM.

Take `NC(=O)C(=O)[C@H](Cc1ccccc1)NC(=O)c1cncn1-c1ncc(-c2ccccc2)cn1` [Compound 74, (S)—N-(4-amino-3,4-dioxo-1-phenylbutan-2-yl)-1-(5-phenylpyrimidin-2-yl)-1H-imidazole-5-carboxamide]: the IC50 at Human Calpain 2/NS1 (Column B), on Human Calpain 1/NS1 (Column A) and at Human Calpain 9/NS1 (Column C) was less than 3 µM throughout.

With `CC[C@@H](C)[C@H](NC(=O)c1c(C)noc1-c1ccccc1)C(=O)C(N)=O` [Compound 73, N-((3S,4R)-1-amino-4-methyl-1,2-dioxohexan-3-yl)-3-methyl-5-phenylisoxazole-4-carboxamide], the IC50 is less than 3 µM at Human Calpain 2/NS1 (Column B), less than 3 µM on Human Calpain 1/NS1 (Column A) and more than 10 µM at Human Calpain 9/NS1 (Column C).

In the case of `Cn1cc(C(=O)NC(Cc2ccccc2)C(=O)C(N)=O)c(-c2ccc3c(c2)OCCCO3)n1` (stereo not drawn) [Compound 625, N-(4-amino-3,4-dioxo-1-phenylbutan-2-yl)-3-(3,4-dihydro-2H-benzo[b][1,4]dioxepin-7-yl)-1-methyl-1H-pyrazole-4-carboxamide], the IC50 at Human Calpain 2/NS1, on Human Calpain 1/NS1 and at Human Calpain 9/NS1 was less than 3 µM in each case.

As to `Cn1cc(C(=O)NC(Cc2ccccc2)C(=O)C(N)=O)c(-c2cccs2)n1` (stereo not drawn) [Compound 615, N-(4-amino-3,4-dioxo-1-phenylbutan-2-yl)-1-methyl-3-(thiophen-2-yl)-1H-pyrazole-4-carboxamide], the IC50 on Human Calpain 2/NS1, on Human Calpain 1/NS1 and on Human Calpain 9/NS1 was less than 3 µM throughout.

With `Cn1cc(-c2nn(C)cc2C(=O)NC(Cc2ccccc2)C(=O)C(N)=O)cn1` (stereo not drawn) [Compound 626, N-(4-amino-3,4-dioxo-1-phenylbutan-2-yl)-1,1′-dimethyl-1H,1′H-[3,4′-bipyrazole]-4-carboxamide], the IC50 on Human Calpain 2/NS1, on Human Calpain 1/NS1 and at Human Calpain 9/NS1 was less than 3 µM throughout.

Regarding `Cc1noc(-c2ccccc2)c1C(=O)N[C@@H](Cc1ccccc1)C(=O)C(=O)NCc1cccc(OC(F)(F)F)c1` [Compound 150, (S)—N-(3,4-dioxo-1-phenyl-4-((3-(trifluoromethoxy)benzyl)amino)butan-2-yl)-3-methyl-5-phenylisoxazole-4-carboxamide], the IC50 on Human Calpain 2/NS1 (Column B), at Human Calpain 1/NS1 (Column A) and on Human Calpain 9/NS1 (Column C) was more than 10 µM each time.

Turning to `Cc1cc(C)cc(C[C@H](NC(=O)c2c(C)noc2-c2ccccc2)C(=O)C(N)=O)c1` [Compound 97, (S)—N-(4-amino-1-(3,5-dimethylphenyl)-3,4-dioxobutan-2-yl)-3-methyl-5-phenylisoxazole-4-carboxamide], the IC50 on Human Calpain 2/NS1 (Column B), on Human Calpain 1/NS1 (Column A) and on Human Calpain 9/NS1 (Column C) was less than 3 µM each time.

Turning to `Cc1cc(C(=O)N[C@@H](Cc2ccccc2)C(=O)C(N)=O)n(-c2nccc3ccccc23)n1` [Compound 119, (S)—N-(4-amino-3,4-dioxo-1-phenylbutan-2-yl)-1-(isoquinolin-1-yl)-3-methyl-1H-pyrazole-5-carboxamide], the IC50 on Human Calpain 2/NS1 (Column B), on Human Calpain 1/NS1 (Column A) and at Human Calpain 9/NS1 (Column C) was less than 3 µM throughout.

As for `Cn1cc(C(=O)NC(Cc2ccccc2)C(=O)C(N)=O)c(C2CCCC2)n1` (stereo not drawn) [Compound 620, N-(4-amino-3,4-dioxo-1-phenylbutan-2-yl)-3-cyclopentyl-1-methyl-1H-pyrazole-4-carboxamide], the IC50 on Human Calpain 2/NS1 is less than 3 µM; at Human Calpain 1/NS1, less than 3 µM; on Human Calpain 9/NS1 it was 3 to 10 µM.

Consider `O=C(NC1CC1)C(=O)[C@H](Cc1ccccc1)NC(=O)c1cncn1-c1nc2ccccc2[nH]1` [Compound 71, (S)-1-(1H-benzo[d]imidazol-2-yl)-N-(4-(cyclopropylamino)-3,4-dioxo-1-phenylbutan-2-yl)-1H-imidazole-5-carboxamide], for which the IC50 is 3 to 10 µM at Human Calpain 2/NS1 (Column B), 3 to 10 µM at Human Calpain 1/NS1 (Column A) and more than 10 µM at Human Calpain 9/NS1 (Column C).

For the molecule `NC(=O)C(=O)[C@H](Cc1ccccc1)NC(=O)c1scnc1-c1ccccc1` [Compound 18, (S)—N-(4-amino-3,4-dioxo-1-phenylbutan-2-yl)-4-phenyl thiazole-5-carboxamide], the IC50 on Human Calpain 2/NS1 (Column B), at Human Calpain 1/NS1 (Column A) and at Human Calpain 9/NS1 (Column C) was less than 3 µM throughout.
